# Data as given in ChEMBL document CHEMBL2074427, “Identification of a mechanism by which the methylmercury antidotes N-acetylcysteine and dimercaptopropanesulfonate enhance urinary metal excretion: transport by the renal organic anion transporter-1” (Mol Pharmacol, 2002).
# pKi: −log10 of the molar value.
# Tests used:
# [1] = molecular target: T1, Solute carrier family 22 member 6 (Rattus norvegicus, UniProt O35956); test: TP_TRANSPORTER: inhibition of PAH uptake in Xenopus laevis oocytes; type: functional, cell-based, Oocyte
# T1 sequence (O35956 whole entry): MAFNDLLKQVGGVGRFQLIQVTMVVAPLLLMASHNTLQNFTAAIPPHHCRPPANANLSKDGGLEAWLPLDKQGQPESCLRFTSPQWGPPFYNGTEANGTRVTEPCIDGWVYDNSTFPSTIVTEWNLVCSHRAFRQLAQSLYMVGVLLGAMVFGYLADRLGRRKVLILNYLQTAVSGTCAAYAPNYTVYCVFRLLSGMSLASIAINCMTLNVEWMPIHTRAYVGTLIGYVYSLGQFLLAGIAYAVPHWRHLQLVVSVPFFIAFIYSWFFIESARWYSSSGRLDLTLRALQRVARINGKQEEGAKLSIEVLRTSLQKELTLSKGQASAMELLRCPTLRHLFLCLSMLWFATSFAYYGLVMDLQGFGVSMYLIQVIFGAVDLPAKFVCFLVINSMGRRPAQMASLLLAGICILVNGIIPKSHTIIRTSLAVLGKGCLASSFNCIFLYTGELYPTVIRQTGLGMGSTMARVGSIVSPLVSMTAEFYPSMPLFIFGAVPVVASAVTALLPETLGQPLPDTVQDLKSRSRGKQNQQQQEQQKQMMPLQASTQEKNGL
# [2] = molecular target: T2, Organic anion transporter 3 (Rattus norvegicus, UniProt Q9R1U7); test: (§1) TP_TRANSPORTER: uptake in Xenopus laevis oocytes; type: functional, cell-based; conditions: oocyte
# T2 sequence (Q9R1U7 whole entry): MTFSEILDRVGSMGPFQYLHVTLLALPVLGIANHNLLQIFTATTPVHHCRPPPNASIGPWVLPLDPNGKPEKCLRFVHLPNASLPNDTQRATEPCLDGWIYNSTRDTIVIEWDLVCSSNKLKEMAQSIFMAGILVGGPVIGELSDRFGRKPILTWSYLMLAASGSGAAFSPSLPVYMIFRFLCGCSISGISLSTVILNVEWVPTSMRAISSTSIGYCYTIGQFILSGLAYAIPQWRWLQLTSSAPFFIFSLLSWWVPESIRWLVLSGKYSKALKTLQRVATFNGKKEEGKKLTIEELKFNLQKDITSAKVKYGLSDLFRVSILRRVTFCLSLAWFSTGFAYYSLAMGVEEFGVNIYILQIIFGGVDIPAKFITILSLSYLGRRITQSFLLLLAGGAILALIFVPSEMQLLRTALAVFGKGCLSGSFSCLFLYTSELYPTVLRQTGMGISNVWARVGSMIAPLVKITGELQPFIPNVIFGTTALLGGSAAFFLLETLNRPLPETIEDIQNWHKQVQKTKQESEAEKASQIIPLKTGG
# [3] = molecular target: T1, Solute carrier family 22 member 6; test: as §1; type: functional, cell-based; conditions: oocyte
pKi [1],Activity [2],Km [3] [µM],Activity [3],Compound
2.70,–,–,–,CC(=O)N[C@@H](CS)C(=O)O [ACETYLCYSTEINE]
–,is not a substrate [-],31,–,MeHg-NAC
–,is not a substrate [-],–,is not a substrate [-],MeHg-glutathione
–,is not a substrate [-],–,is not a substrate [-],MeHg-penicillamine
